# Results taken from patent publication US20090222217A1, “Method of calculating environment risk of a chemical in soil” (AMSTED Industries Inc., priority 2008, published 2009).
# How the values were obtained:
# [1] = published sources; cited from earlier work
# [2] = more conservative of carcinogenic or chronic, oral or dermal pathway; published sources; cited from earlier work
# [3] = sand, Foc 0.0003 mg/mg; Kd=Foc×Koc
# Procedure: To obtain a value to represent the mobility of each compound, two variables are used: Henry's Law constant (H), which focuses on the physical chemistry of the chemical and the retardation factor (R), which focuses on the physical and chemical characteristics of the geological environment. The retardation factor was calculated by first calculating the distribution coefficient using Equation 1.
# Values for the organic carbon partition coefficient can be obtained from location-specific testing of soil or from various published sources. And the fraction of organic carbon in soil can be obtained from location-specific testing of soil or from various published sources.
# [4] = M=(H)(R), sand
# From the text: With Henry's Law constant and the retardation factor in place, the mobility of a specific compound is expressed as Equation (4):
# where: M=mobility; H=Henry's Law constant; R=retardation factor
# [5] = sand, bulk density 1.8 g/cm^3, effective porosity 0.25
# Procedure: Once the distribution coefficient is calculated, the Retardation Factor can be calculated using Equation 2.
# where: R is the retardation factor; ρb=bulk density of aquifer matrix (g/cm^3); Kd=distribution coefficient (mL·g^−1); η=effective porosity
smiles,measurement,setting,value
c1ccccc1 [benzene],Henry's Law constant (H),[1],0.228 atm.·mol^−1·m^−3
same,toxicity value (T),[2],0.04 mg/kg-day^−1
same,"Kd, distribution coefficient",[3],0.0177 mL/g
same,mobility factor (M),[4],0.2576
same,retardation factor (R),[5],1.13
